Measurements taken from article PMC3930563, “Mycobacterium tuberculosis Exploits Asparagine to Assimilate Nitrogen and Resist Acid Stress during Infection” (PLoS Pathogens, 2014).

Target: AnsA (Rv1538c), recombinant AnsA-HIS6 (Mycobacterium tuberculosis, UniProt P9WPX5)
Sequence (P9WPX5 whole entry): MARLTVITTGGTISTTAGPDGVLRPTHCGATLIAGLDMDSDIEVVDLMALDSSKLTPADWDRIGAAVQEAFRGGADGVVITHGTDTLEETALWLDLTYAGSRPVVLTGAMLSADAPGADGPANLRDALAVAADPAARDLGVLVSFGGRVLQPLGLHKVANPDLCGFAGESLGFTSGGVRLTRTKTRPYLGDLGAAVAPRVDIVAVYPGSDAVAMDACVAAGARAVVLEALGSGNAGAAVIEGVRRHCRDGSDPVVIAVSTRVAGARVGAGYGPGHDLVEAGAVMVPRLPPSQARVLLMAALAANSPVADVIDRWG

NC(=O)C[C@H](N)C(=O)O [Asn, asparagine]
coupled glutamate dehydrogenase assay, NADPH disappearance at 340 nm: revealed that AnsA mediates asparagine hydrolysis (Fig. 1E)
